Experiments:
[1] = test system: PDX14244; assay: Pancreatic cancer PDX14244 in SCID mice; type: in vivo; conditions: 5 mg/kg ip qw×4
Procedure: (§1) Human pancreatic cancer patient-derived xenograft (PDX) tumor mouse model and treatment. Experiments followed the IACUC-approved mouse protocol. Briefly, human PDAC PDX tumors maintained on SCID mice were isolated, and a piece of non-necrotic tumor tissues (30-40 mg) were subcutaneously transplanted into the flank area of female SCID mice. […] In this study, we used the timesaving intraperitoneal (ip) route for drug administration. […] The formulation process was described in detail in our previous patent (PCT/US2011/058558). […] Tumor length (L) and width (W) were measured using digital vernier calipers 1-3 times per week until the end of experimental studies. The tumor volume (v) was calculated using the formula: v=0.5 (L×W^2). Then the tumor size was divided by the day 0 tumor size as percentage tumor size versus day 0. The mean tumor volume ± standard deviation (SD) at each time point was derived from 5 mice in each group. The tumor curves were made using Sigma Plot software.
(§2) It has been recently documented that pancreatic cancer PDXs retain active paracrine/Hedgehog signaling, and desmoplasia is active in PDX tumor mouse models.

[2] = test system: PANC1-GFPcODC cells; assay: Trypan blue exclusion, PANC1-GFPcODC cells; type: cell-based, human; conditions: 4-day treatment; 20 μM cisplatin, 10 nM FL118, or both
From the text: Generation of A2780-GFPcODC, A2780CP-GFPcODC and PANC1GFPcODC cells and fluorescence microscopy to detect stem-like and drug resistant green cells. The retroviral expression vector pQCXIN-ZsGreen-cODC (ornithine decarboxylase), containing a green fluorescence marker, was kindly provided by Dr. Frank Pajonk (Vlashi E, et al., In vivo imaging, tracking, and targeting of cancer stem cells. J Natl Cancer Inst. 2009; 101: 350-9). The retroviral particles collected from packaging cells that transfected with the above vector were infected into A2780, A2780CP and PANC1 cells, respectively. The transfected cell pool was used for experiments. […] Cell images were acquired digitally using the Olympus IX73 Inverted Score s (Olympus). Percentages of living cells were obtained from the average of the total cells counted from 10 microscopic fields.
Next, we applied the same system to generate pancreatic cancer PANC1-GFPcODC cells.

[3] = test system: CRC PDX27454 tumors; conditions: spray-dried FL118-HPβCD powder in saline with 5% PG, p.o. weekly ×4, half MTD
Procedure: Colorectal cancer (CRC) patient-derived xenograft (PDX) models were used to evaluate their in vivo antitumor activity. […] Treatments were administered weekly for four weeks on days 0, 7, 14 and 21 and tumor volumes and individual body weights were monitored.
Human xenograft tumors used. In this invention disclose, human SW620 (colorectal), HT29 (colorectal) and HT-3 (retinoblastoma) cancer cell line-established xenograft tumors were used. Human tumor cell line-derived xenograft tumors are initially established by subcutaneously injecting 2-5×10^6 cultured cancer cells in a volume of 100-150 p L medium into the flank area of severe combined immunodeficiency (SCID) mice. The derived tumors are then passed a couple of generations in mice by transplanting 30-50 mg non-necrotic tumor mass via a trocar for experiments or maintenance. […] PDX tumors were originally established on severe Combined Immunodeficiency (SCID) mice from pancreatic and colorectal cancer patient tumor tissues obtained from metastatic sites of the disease in the clinic.
Specifically, PDX tumors were originally established on severe Combined Immunodeficiency (SCID) mice from pancreatic and colorectal cancer patient tumor tissues obtained from metastatic sites of the disease in the clinic. […] The vehicle is the same think aqueous suspension without drug. Experimental SCID mice were subcutaneously implanted with 30-40 mg individual PDX tumors (isolated from maintenance mice) at the flank area for PDX27454 of SCID mice. Treatment with vehicle or a drug of 7Q-series (2) was initiated 7-14 days after the transplanted tumors reached 100-200 mm^3 (designated day 0). The animal model of PDX tumors was orally treated weekly for 4 times (one cycle/course, as shown with black arrows) or only one time drug administration.

[4] = test system: PDX10978; assay: Pancreatic cancer PDX10978 in SCID mice; type: in vivo
Procedure: as §1, §2

[5] = test system: HeLa; type: cell-based, human; conditions: Table 13; MTT; HeLa cervical cancer
[6] = test system: A549; type: cell-based, human; conditions: Table 13; MTT; A549 lung cancer
[7] = FL118 MTD in SCID mice; type: in vivo
[8] = test system: PDX17624; assay: Pancreatic cancer PDX17624 in SCID mice; type: in vivo; conditions: 5 mg/kg ip qw×4
Procedure: as §1, §2

[9] = test system: CD44 stem cell marker-positive PANC1 cells; assay: CD44-positive PANC1 colony formation; type: cell-based, human
Procedure: CD44 positive cell sorting and CD44-positive cell colony formation. CD44 positive (CD44+) cells were purified (sorted out) using fluorescence activated cell sorting (FACS). FITC-conjugated mouse anti-human CD44 was used in FACS purification of CD44+ PANC1 cells. Briefly, PANC1 cells were harvested by using 0.25% trypsin/0.02% EDTA. After re-suspension of the cells in cell-culture media, the cells were counted and washed in PBS with 2% FBS and collected by centrifugation. Add 10 μL FITC-CD44 antibody to 1 ml PBS containing 1 million cells and 2% of FBS for 30 minutes on ice. Following the antibody labeling, PANC1 cells were washed in PBS with 2% BSA before flow cytometric analysis was carried out on a BD FACSAria™ III cell sorter (BD Science, USA). […] Colonies were fixed, stained with crystal violet solution and images were taken before counting colonies on day 12. The experimental results were expressed as the mean±SD. The statistical significance of differences was determined by Student's t-test between two groups.
To further confirm these findings, we alternatively used the typical matrigel-based CSC sphere formation assay which is know to more closely mimic in vivo situations. In this assay only drug resistant stem-like cancer cells are able to form spheres. […] We performed colony formation of CD44 stem cell marker-positive cells using the stem-cell culture condition. […]

[10] = test system: PANC1, Mia2, BxPC-3; assay: MTT viability of pancreatic cancer cells; type: cell-based, human; conditions: 72 h, nM level
Procedure: MTT assays. […] Each experiment was performed at least in triplicate.
Next, we determined whether FL118-mediated inhibition of antiapoptotic proteins and induction of pro-apoptotic proteins shown in FIG. 1 would be accompanied by induction of apoptosis and cell killing.

CC[C@@]1(O)C(=O)OCc2c1cc1n(c2=O)Cc2cc3cc4c(cc3nc2-1)OCO4 [FL118, 10,11-methylenedioxy-camptothecin]
antitumor efficacy [1]: able to eliminate these PDX tumors after one cycle of treatment | cell death [2]: ~18% | antitumor activity [3]: great antitumor activity | toxicity (mouse body weight changes) [3]: no toxicity at all | antitumor efficacy ([4]; 5 mg/kg ip qw×4): only able to delay PDX10978 tumor growth | antitumor efficacy, single agent ([4]; FL118 0.75 mg/kg or gemcitabine 60 mg/kg ip qw×4): only delayed tumor growth | IC50 [5]: 34.7 ± 9.9 nM | IC50 [6]: 81.8 ± 14 nM | maximum tolerated dose (MTD) ([7]; oral formulation, tumor-bearing SCID mice, qw×4): 10 mg/kg | MTD ([7]; oral, q1d×5 and q2d×5): ~1.5 mg/kg | MTD ([7]; two doses in SCID mice, estimated): 12 mg/kg/dose | antitumor efficacy [8]: able to eliminate these PDX tumors after one cycle of treatment | colony formation ([9]; 1 nM): significantly inhibited colony formation | colony formation ([9]; 10 and 100 nM): completely eliminate colony formation | pancreatic cancer cell viability [10]: effectively inhibited pancreatic cancer cell viability

Source: patent US20250092058A1 (priority 2018, published 2025)
